This assay addresses T1, human FXR (NR1H4) (Homo sapiens, UniProt Q96RI1).
T1 construct: host or cells: CHO (Chinese hamster ovary) reporter cells
T1 sequence (Q96RI1 1-486): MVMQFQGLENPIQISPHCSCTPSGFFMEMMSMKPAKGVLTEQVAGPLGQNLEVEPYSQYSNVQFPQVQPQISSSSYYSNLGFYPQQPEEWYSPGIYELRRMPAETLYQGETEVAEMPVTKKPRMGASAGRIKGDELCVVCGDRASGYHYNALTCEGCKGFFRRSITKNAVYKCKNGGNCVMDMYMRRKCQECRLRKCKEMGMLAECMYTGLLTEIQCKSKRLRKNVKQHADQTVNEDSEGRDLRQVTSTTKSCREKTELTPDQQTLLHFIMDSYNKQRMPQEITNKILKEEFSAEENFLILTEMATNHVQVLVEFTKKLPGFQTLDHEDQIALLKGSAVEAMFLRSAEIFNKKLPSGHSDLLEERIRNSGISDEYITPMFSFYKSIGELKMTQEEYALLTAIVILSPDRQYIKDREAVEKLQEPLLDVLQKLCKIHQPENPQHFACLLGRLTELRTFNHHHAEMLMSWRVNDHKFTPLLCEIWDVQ
The experiment in a line: Human FXR (NR1H4) Assay (luciferase reporter, Indigo Bioscience kit). Format: cell-based. Particulars: for Efficacy (%): efficacy normalized to CDCA set as 100%, CHO reporter cells expressing human NR1H4. An excerpt: Human FXR (NR1H4) Assay Determination of a ligand mediated Gal4 promoter driven transactivation to quantify ligand binding mediated activation of FXR. FXR Reporter Assay kit purchased from Indigo Bioscience (Catalogue number: IB00601) to determine the potency and efficacy of compound developed by Enanta that can induce FXR activation. The principle application of this reporter assay system is to quantify functional activity of human FXR. The assay utilizes non-human mammalian cells, CHO (Chinese hamster ovary) cells engineered to express human NR1H4 protein (referred to as FXR). Reporter cells also incorporate the cDNA encoding beetle luciferase which catalyzes the substrates and yields photon emission. Luminescence intensity of the reaction is quantified using a plate-reading luminometer, Envision. Reporter Cells include the luciferase reporter gene functionally linked to an FXR responsive promoter. Thus, quantifying changes in luciferase expression in the treated reporter cells provides a sensitive surrogate measure of the changes in FXR activity. […] The assay is according to the manufacturer's instructions. In brief, the assay was performed in white, 96 well plates using final volume of 100 ul containing cells with different doses of compounds. Retrieve Reporter Cells from −80° C. storage. Perform a rapid thaw of the frozen cells by transferring a 10 ml volume of 37° C. cell recovery medium into the tube of frozen cells. Recap the tube of Reporter Cells and immediately place it in a 37° C. water bath for 5-10 minutes. Retrieve the tube of Reporter Cell Suspension from the water bath. Sanitize the outside surface of the tube with a 70% alcohol swab, and then transfer it into the cell culture hood. Dispense 90 μl of cell suspension into each well of the 96-well Assay Plate. Transfer the plate into 37° C. incubator, allowing the cells adherent to the bottom of the well. Dilute compounds in Dilution Plate (DP), and administrate to cells at Assay Plate (AP). DMSO content of the samples was kept at 0.2%. Cells were incubated for additional 22 hours before luciferase activities were measured. Thirty minutes before intending to quantify FXR activity, remove Detection Substrate and Detection Buffer from the refrigerator and place them in a low-light area so that they may equilibrate to room temperature. Remove the plate's lid and discard all media contents by ejecting it into an appropriate waste container. Gently tap the inverted plate onto a clean absorbent paper towel to remove residual droplets. Cells will remain tightly adhered to well bottoms. Add 100 μl of luciferase detection reagent to each well of the assay plate. […] Set the instrument (Envision) to perform a single 5 second “plate shake” prior to reading the first assay well. Read time may be 0.5 second (500 mSec) per well.

Data on two molecules can be found in patent US10364267B2, “Deuterated bile acid derivatives as FXR/TGR5 agonists and methods of use thereof” (ENANTA PHARMACEUTICALS, INC., priority 2016, dated 2019).

Take `[2H]C([C@@H]1[C@@H]2C[C@H](O)CC[C@]2(C)C2CC[C@@]3(C)C(CC[C@@H]3[C@H](C)CCNC(=O)NS(=O)(=O)N(C)C)C2[C@]1([2H])O)C([2H])([2H])[2H]` (stereo partly shown) [Example 5]: the half-maximal effective concentration (EC50) was 100 to 1000 nM and the “Efficacy (%)” value was 352. %.

With `[2H]C([C@@H]1[C@@H]2C[C@H](O)CC[C@]2(C)C2CC[C@@]3(C)C(CC[C@@H]3[C@H](C)CCNC(=O)NS(=O)(=O)c3ccc(C(C)(C)C)cc3)C2[C@]1([2H])O)C([2H])([2H])[2H]` (stereo partly shown) [Example 4], the EC50 was less than 100 nM and the “Efficacy (%)” value turned out to be 197%.
